The test system of one data set is HepG2. Put plainly: Cytotoxicity against human HepG2 cells assessed as reduction in cell viability incubated for 72 hrs measured by […]-based colorimetric assay. The format is functional.
For the next data set, the system named is HL-60. Put plainly: Cytotoxicity against human HL-60 cells assessed as reduction in cell viability incubated for 72 hrs measured by […]-based colorimetric assay. The format is functional.
A further data set has as its system CCRF-CEM. Put plainly: Cytotoxicity against human CCRF-CEM cells assessed as reduction in cell viability incubated for 72 hrs measured by […]-based colorimetric assay. The format is functional.
Data set [1] is described as follows: Drug degradation in mouse liver microsomes measured up to 1 min incubated for 2 hrs by LC/MS-MS analysis. Type of data set: ADME, Microsome. A general note: Liver microsomes are vesicles of endoplasmic reticulum, rich in cytochrome P450 enzymes.
The nature of data set [2]: Metabolic stability in human plasma incubated for 2 hrs by LC/MS-MS analysis. Type of data set: ADME, cell-free.
The test system of a further data set is HeLa. Put plainly: Cytotoxicity against human HeLa cells assessed as reduction in cell viability incubated for 72 hrs measured by […]-based colorimetric assay. The format is functional.
A short description of data set [3]: Inhibition of PREP (unknown origin) using fluorogenic substrate by spectrometric assay. Further details: species or system Homo sapiens.
In the next data set the target is Dipeptidyl peptidase 4 (Homo sapiens, UniProt P27487). Put plainly: Inhibition of SF-tagged DPP4 (unknown origin) expressed in Drosophila S2 cells using fluorogenic substrate by spectrometric analysis. Type of data set: cell-based.
Dipeptidyl peptidase 4, sequence (P27487 whole entry): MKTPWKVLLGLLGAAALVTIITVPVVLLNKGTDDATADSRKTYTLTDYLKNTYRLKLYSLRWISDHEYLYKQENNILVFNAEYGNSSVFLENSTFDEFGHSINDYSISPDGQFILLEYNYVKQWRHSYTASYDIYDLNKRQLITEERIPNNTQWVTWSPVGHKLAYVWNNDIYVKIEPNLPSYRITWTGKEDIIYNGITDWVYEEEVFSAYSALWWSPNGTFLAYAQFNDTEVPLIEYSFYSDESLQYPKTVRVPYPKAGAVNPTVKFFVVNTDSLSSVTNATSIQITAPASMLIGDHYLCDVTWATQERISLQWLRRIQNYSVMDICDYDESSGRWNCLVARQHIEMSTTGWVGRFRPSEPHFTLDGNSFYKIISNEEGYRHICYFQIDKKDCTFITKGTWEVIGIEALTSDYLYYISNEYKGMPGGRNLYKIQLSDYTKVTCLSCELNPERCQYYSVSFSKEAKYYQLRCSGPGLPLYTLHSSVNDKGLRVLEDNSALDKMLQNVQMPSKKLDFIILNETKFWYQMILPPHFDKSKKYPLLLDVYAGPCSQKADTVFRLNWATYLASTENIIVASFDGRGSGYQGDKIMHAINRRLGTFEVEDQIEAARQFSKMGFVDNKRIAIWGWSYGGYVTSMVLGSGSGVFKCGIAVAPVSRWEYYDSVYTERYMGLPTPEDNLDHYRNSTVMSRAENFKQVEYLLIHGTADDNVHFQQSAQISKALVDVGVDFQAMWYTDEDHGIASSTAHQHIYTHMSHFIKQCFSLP
The nature of data set [4]: Drug degradation in human plasma measured up to 1 min incubated for 2 hrs by LC/MS-MS analysis. Type of data set: ADME, cell-free.

Molecules are shown by their SMILES. Activity calls are given as the source filed them. The calls are words filed in the database; no cut-off is given here.

As to `COc1ccc(CCNC(=O)C(=O)[C@@H]2CCCN2C(=O)CNC(=O)c2ccnc3ccccc23)cc1OC`, the result with HepG2, in the data set on HL-60, in the data set with CCRF-CEM and with HeLa was inactive. Also, the Stabilty result in [1] is listed as “Unstable”; in [2], “Stable”. This molecule also returned an IC50 in [3] of 0.43 nM.
Consider `COc1ccc(CNC(=O)C(=O)[C@@H]2CCCN2C(=O)CNC(=O)c2ccnc3ccccc23)cc1OC`, for which the result in the data set on HepG2, in the data set on HL-60, in the data set with CCRF-CEM and in the data set on HeLa was inactive. For the same molecule, the Stabilty result in data set [2] is listed as “Stable”. Inhibition in [3] was half-maximal at 0.24 nM (IC50).
`O=C(NCC(=O)N1CCOCC1)C(=O)[C@@H]1CCCN1C(=O)CNC(=O)c1ccnc2ccccc12`: the outcome in the data set with HepG2, in the data set on HL-60, with CCRF-CEM and with HeLa was inactive. Besides, the IC50 in data set [3] is 0.49 nM; on Dipeptidyl peptidase 4, more than 4000 nM.
`COC(=O)[C@H](Cc1ccccc1)NC(=O)CNC(=O)C(=O)[C@@H]1CCCN1C(=O)CNC(=O)c1ccnc2ccccc12`: the outcome in the data set on HepG2, with HL-60, with CCRF-CEM and with HeLa was inactive. In addition, the Stabilty result in [1] is on record as “Unstable”; in [2], “Stable”; in [4] it was “Unstable”. The values for the IC50 (in [3]; against Dipeptidyl peptidase 4) were 0.36 nM and more than 4000 nM, respectively.
For `CC(C)(C)OC(=O)CNC(=O)C(=O)[C@@H]1CCCN1C(=O)CNC(=O)c1ccnc2ccccc12`, the outcome in the data set with HepG2, with HL-60, with CCRF-CEM and with HeLa was inactive. Moreover, the IC50 in data set [3] was 0.53 nM; against Dipeptidyl peptidase 4, more than 3000 nM.
Regarding `COC(=O)[C@H](CCCCNC(=O)OCc1ccccc1)NC(=O)CNC(=O)C(=O)[C@@H]1CCCN1C(=O)CNC(=O)c1ccnc2ccccc12`, the outcome in the data set with HepG2, with HL-60, in the data set with CCRF-CEM and in the data set with HeLa was inactive. For the same molecule, the IC50 is 0.29 nM in data set [3] and more than 4000 nM at Dipeptidyl peptidase 4.
For the molecule `CC(C)(C)NC(=O)CNC(=O)C(=O)[C@@H]1CCCN1C(=O)CNC(=O)c1ccnc2ccccc12`, the outcome in the data set with HepG2, in the data set with HL-60, with CCRF-CEM and with HeLa was inactive. The figures for the IC50 (in data set [3]; at Dipeptidyl peptidase 4) were 0.73 nM and more than 4000 nM, respectively.
`O=C(NCc1ccccc1)C(=O)[C@@H]1CCCN1C(=O)CNC(=O)c1ccnc2ccccc12`: the outcome in the data set with HepG2, in the data set on HL-60, in the data set on CCRF-CEM and with HeLa was inactive. The Stabilty result is given as “Unstable” in data set [1] and “Stable” in data set [2].
For the molecule `Cc1ccc(CNC(=O)C(=O)[C@@H]2CCCN2C(=O)CNC(=O)c2ccnc3ccccc23)c(C)c1`, the result with HepG2, with HL-60, with CCRF-CEM and with HeLa was inactive. The IC50 in [3] was 0.66 nM; against Dipeptidyl peptidase 4, more than 4000 nM.
As for `COC(=O)[C@H](CCC(=O)O)NC(=O)CNC(=O)C(=O)[C@@H]1CCCN1C(=O)CNC(=O)c1ccnc2ccccc12`, the outcome in the data set with HepG2, with HL-60, with CCRF-CEM and in the data set on HeLa was inactive. The concentration for half-maximal inhibition (IC50) in data set [3] was 1.3 nM; against Dipeptidyl peptidase 4, more than 4000 nM.
For `COC(=O)[C@H](CCC(=O)OCc1ccccc1)NC(=O)CNC(=O)C(=O)[C@@H]1CCCN1C(=O)CNC(=O)c1ccnc2ccccc12`, the result in the data set on HepG2, with HL-60, with CCRF-CEM and in the data set with HeLa was inactive. In addition, the Stabilty result was “Unstable” in data set [1], “Stable” in data set [2] and “Unstable” in data set [4].

Usually IC50 stands for the concentration at which inhibition is half-maximal. A lower IC50 goes with greater potency in that assay.

(Values after ChEMBL document CHEMBL4842347, “Structure-activity relationship and biochemical evaluation of novel fibroblast activation protein and prolyl endopeptidase inhibitors with α-ketoamide warheads” (Eur J Med Chem, 2021).)
